Measurements taken from patent US20260183300A1, “PHARMACEUTICAL COMPOSITION AND USE THEREOF” (priority 2022, published 2026).

Columns and labels:
[1] = studies have shown; cited from earlier work
THG15 cells = assay: Cell viability assay (CCK-8); assay type: cell-based; details: Homo sapiens, 72 hours, estimated IC50, read-out: IC50 (half maximal inhibitory concentration), cell viability
Procedure: Patient-derived tumor cell were obtained with the approval of the Ethics Committee of the Beijing Tsinghua Changgung Hospital in compliance with informed consent of the patient and their family. […] Briefly, the tissues were mechanically minced and then digested with 0.1% trypsin (Hyclone) and 10 U/ml DNasel (Roche) at 37° C. for 45 min. The tissues were passed through a 100-μm cell strainer after lysis of red blood cells and several washes. Cells that that passed through the filter were collected and added with EF medium composed of Neurobasal medium, 3 mM L-glutamine, 1×B27 supplement, 0.5×N2 supplement, 2 μg/mL heparin, 20 ng/mL recombinant human EGF (Sigma-Aldrich), 20 ng/mL recombinant human FGF2 (Sigma-Aldrich), and 0.5×antibiotic antimycotic complex. Fresh EF medium was replenished every 3 days during cell culture. Tumor cell spheres were dissociated using NeuroCult Chemical Dissociation kit (StemCell), and cells were passaged.
Panobinostat (LBH589) and Tazemetostat (EPZ-6438) were purchased from Selleck Chemicals and dissolved in 0.1% DMSO before use. About 5,000 THG15 cells were seeded into each well of a 96-well plate and cultured in EF medium for 24 hours prior to drug intervention. […] According to the instructions, cell viability was determined by using a CCK-8 kit (GK10001), and the optical density was measured at 450 nm using a SPARK reader (TECAN). […]

| Structure (SMILES) | penetration of the blood-brain barrier [1] | IC50 (THG15 cells) [µM] |
| --- | --- | --- |
| Cc1[nH]c2ccccc2c1CCNCc1ccc(/C=C/C(=O)NO)cc1 [panobinostat, Panobinostat] | can penetrate the blood-brain barrier | ~1 |
| CCN(c1cc(-c2ccc(CN3CCOCC3)cc2)cc(C(=O)NCc2c(C)cc(C)[nH]c2=O)c1C)C1CCOCC1 [tazemetostat, Tazemetostat] |  | ~50 |
